Laboratory results from ChEMBL document CHEMBL1782016, “Improvement in aqueous solubility in small molecule drug discovery programs by disruption of molecular planarity and symmetry” (J Med Chem, 2011).
≈ marks a conversion by molar mass, not a printed value. Calls of active or inactive are those of the source. The rule behind the calls is not given here.

Legend:
Integrin alpha-V/beta-3 [1] = target: T1, Integrin alpha-V/beta-3 (Homo sapiens, UniProt P05106+P06756); assay: Antagonist activity at alphavbeta3 integrin receptor human VSMC assessed as inhibition of vitronectin-induced cell adhesion; assay type: functional, cell-based
T1 sequence (P05106 27-788 limits assumed): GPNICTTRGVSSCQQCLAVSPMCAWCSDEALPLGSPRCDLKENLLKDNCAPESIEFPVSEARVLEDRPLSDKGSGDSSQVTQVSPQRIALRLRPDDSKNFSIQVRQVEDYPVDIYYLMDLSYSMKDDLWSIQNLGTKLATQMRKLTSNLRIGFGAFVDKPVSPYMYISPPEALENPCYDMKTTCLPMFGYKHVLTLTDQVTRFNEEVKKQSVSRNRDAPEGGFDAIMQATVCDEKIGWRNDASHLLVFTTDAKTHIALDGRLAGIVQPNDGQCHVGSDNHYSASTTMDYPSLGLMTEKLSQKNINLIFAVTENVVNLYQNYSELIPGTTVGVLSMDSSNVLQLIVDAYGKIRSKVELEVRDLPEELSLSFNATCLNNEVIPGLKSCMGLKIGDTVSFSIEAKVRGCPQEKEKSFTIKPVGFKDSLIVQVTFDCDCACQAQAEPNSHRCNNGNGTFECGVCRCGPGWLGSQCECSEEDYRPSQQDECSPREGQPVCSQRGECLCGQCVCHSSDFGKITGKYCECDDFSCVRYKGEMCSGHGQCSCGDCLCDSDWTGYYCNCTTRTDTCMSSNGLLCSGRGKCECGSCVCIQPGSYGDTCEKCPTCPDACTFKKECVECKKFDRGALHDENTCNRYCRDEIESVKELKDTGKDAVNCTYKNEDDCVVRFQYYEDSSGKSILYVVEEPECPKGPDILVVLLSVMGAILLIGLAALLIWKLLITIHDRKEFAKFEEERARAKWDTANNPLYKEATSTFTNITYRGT
T1 sequence (P06756 31-889 limits assumed): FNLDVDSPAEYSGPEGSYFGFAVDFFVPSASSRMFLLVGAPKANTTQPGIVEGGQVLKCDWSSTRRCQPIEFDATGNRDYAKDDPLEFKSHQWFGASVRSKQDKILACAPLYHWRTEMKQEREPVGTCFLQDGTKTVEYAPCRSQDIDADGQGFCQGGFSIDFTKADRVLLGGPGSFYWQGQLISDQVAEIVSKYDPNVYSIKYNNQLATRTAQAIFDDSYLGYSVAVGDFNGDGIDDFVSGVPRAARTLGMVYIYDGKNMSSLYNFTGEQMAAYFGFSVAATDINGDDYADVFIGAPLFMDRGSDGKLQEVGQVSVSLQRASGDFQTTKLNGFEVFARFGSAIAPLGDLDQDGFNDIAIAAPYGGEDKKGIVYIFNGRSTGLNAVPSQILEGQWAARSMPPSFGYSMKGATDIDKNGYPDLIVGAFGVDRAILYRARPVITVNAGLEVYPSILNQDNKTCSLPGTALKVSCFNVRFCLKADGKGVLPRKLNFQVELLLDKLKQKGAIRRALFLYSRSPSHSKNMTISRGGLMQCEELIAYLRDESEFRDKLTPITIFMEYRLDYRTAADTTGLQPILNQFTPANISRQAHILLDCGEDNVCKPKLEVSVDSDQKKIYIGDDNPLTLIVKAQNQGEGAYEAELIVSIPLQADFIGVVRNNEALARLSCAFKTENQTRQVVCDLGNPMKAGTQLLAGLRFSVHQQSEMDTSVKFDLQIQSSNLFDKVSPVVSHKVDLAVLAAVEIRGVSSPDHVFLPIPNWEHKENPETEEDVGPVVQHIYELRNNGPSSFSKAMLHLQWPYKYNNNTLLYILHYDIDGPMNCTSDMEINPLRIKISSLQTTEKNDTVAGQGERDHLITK
T1 sequence (P06756 891-1048 limits assumed): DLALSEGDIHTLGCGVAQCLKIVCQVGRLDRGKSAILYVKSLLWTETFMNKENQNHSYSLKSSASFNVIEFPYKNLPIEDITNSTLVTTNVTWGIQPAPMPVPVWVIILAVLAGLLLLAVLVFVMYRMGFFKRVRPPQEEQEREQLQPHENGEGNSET

Integrin alpha-V/beta-3 [2] = target: T1, Integrin alpha-V/beta-3; assay: Antagonist activity at alphavbeta3 integrin receptor; assay type: functional
[3] = Antiplatelet activity in human platelet rich plasma assessed as inhibition of platelet aggregation; assay type: functional
[4] = target: Integrin alpha-IIb/beta-3 (Homo sapiens, UniProt P05106+P08514); assay: Antagonist activity at alpha2bbeta3 integrin receptor; assay type: functional
Sequence of Integrin alpha-IIb/beta-3 (P05106 27-788 limits assumed): as the sequence (P05106 27-788 limits assumed) above
Sequence of Integrin alpha-IIb/beta-3 (P08514 32-887 limits assumed): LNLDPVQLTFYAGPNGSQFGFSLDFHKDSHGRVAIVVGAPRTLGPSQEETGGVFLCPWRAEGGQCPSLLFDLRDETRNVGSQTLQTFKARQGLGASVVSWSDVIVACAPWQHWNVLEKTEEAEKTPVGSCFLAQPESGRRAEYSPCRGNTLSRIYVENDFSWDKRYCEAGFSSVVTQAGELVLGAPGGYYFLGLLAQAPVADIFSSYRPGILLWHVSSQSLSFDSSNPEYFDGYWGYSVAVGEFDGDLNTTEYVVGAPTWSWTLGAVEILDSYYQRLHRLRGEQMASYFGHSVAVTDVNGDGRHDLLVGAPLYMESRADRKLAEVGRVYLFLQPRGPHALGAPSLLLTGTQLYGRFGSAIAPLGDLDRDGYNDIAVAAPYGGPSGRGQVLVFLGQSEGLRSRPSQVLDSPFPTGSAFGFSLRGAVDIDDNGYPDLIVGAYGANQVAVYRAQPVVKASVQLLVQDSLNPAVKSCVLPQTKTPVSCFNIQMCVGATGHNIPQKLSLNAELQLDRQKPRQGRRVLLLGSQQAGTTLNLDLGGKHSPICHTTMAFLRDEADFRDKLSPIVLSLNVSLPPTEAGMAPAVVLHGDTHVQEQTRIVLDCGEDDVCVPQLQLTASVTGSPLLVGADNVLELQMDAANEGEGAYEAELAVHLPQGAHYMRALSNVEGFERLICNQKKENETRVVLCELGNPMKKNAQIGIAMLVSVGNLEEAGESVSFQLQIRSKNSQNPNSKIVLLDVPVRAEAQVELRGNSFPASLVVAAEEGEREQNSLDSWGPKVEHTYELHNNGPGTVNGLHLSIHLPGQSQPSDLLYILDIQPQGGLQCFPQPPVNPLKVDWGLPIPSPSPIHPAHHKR
Sequence of Integrin alpha-IIb/beta-3 (P08514 891-1039 limits assumed): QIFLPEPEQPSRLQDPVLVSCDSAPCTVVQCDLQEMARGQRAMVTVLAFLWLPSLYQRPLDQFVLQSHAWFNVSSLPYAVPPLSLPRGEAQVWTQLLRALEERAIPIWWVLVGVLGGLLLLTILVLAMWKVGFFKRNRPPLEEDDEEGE

[5] = Aqueous solubility of the compound in water
[6] = target: T2, Peroxisome proliferator-activated receptor alpha (Homo sapiens) (UniProt Q07869); assay: Agonist activity at PPARalpha at 1 uM; assay type: functional
T2 sequence (whole entry): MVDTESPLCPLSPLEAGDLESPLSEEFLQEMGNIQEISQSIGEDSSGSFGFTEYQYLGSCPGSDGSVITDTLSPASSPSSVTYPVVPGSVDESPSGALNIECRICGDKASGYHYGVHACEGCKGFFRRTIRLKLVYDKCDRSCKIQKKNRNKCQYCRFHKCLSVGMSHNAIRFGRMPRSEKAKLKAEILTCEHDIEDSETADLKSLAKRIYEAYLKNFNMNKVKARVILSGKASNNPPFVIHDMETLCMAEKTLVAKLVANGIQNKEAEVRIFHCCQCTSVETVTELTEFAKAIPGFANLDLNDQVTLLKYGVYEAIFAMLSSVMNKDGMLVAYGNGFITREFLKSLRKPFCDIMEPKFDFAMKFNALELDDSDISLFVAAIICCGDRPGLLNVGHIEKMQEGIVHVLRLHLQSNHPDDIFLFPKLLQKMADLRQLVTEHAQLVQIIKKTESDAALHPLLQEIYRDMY

[7] = target: Macrophage metalloelastase (Homo sapiens, UniProt P39900); assay: Inhibition of MMP12
Sequence of Macrophage metalloelastase (P39900 whole entry): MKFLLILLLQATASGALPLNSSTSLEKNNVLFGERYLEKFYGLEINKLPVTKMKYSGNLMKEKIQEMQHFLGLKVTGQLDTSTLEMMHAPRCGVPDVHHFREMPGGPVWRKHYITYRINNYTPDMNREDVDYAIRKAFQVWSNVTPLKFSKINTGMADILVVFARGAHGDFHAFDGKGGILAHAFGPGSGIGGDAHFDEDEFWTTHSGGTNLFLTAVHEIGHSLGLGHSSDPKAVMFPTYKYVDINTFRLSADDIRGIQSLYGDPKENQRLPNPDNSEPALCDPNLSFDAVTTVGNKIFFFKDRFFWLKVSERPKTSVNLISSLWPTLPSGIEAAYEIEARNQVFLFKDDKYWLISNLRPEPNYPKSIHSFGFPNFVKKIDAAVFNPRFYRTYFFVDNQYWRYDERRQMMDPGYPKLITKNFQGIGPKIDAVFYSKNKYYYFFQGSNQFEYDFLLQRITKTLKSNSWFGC

[8] = Aqueous solubility of the compound; assay type: physicochemical; conditions: buffer
[9] = Inhibition of Escherichia coli H560 DNA gyrase mediated DNA cleavage
[10] = Aqueous solubility of the compound at pH 7.4; assay type: physicochemical; conditions: buffer
[11] = Oral bioavailability in rat; conditions: in vivo

Row | IC50 (Integrin alpha-V/beta-3 [1]) [nM] | IC50 (Integrin alpha-V/beta-3 [2]) [nM] | IC50 [3] [nM] | IC50 [4] [nM] | SMILES | further results
1 | 52 | 0.25 | 99 | 0.4 | O=C(NC[C@H](NS(=O)(=O)c1cccs1)C(=O)O)c1ccc(N2CCC[C@H](NC3=NCCCN3)C2)cc1 | solubility ([5]; water): 3300 µg/mL (≈ 6170 µM)
2 | 31 | 0.48 | 83 | 0.56 | O=C(NC[C@H](NS(=O)(=O)c1ccccc1)C(=O)O)c1ccc(N2CCC[C@H](N=C3NCCCN3)C2)cc1 | solubility ([5]; buffer): 3500 µg/mL (≈ 6620 µM)
3 | 530 | 0.44 | 170 | 0.98 | O=C(NC[C@H](NS(=O)(=O)c1ccccc1)C(=O)O)c1ccc(N2CCC(NC3=NCCCN3)CC2)c(O)c1 | 
4 |  |  |  |  | CCCCOc1ccc(-c2ccc(C(=O)O)cc2)cc1CNC(=O)c1ccc(C(F)(F)F)cc1F | Activity [6]: inactive
5 |  |  |  |  | O=C(O)Cc1ccc(CNC(=O)c2cc(-c3ccc(-c4ccccc4O)cc3)cs2)cc1 | IC50 [7]: 90 nM; solubility [8]: 134 µg/mL (≈ 302 µM)
6 |  |  |  |  | O=c1cc(-c2ccccc2)oc2ccc3ccccc3c12 [BETA-NAPHTHOFLAVONE] | solubility [8]: < 0.15 µg/mL
7 |  |  |  |  | O=C(O)Cc1ccc(CNC(=O)c2cc(-c3ccc(-c4ccccc4)cc3)cs2)cc1 | IC50 [7]: 70 nM; solubility [8]: < 1 µg/mL
8 | 48 | 0.36 | 37 | 0.21 | O=C(NC[C@H](NS(=O)(=O)c1ccccc1)C(=O)O)c1ccc(N2CCC(NC3=NCCCN3)CC2)c(F)c1 | solubility ([5]; buffer): 600 µg/mL (≈ 1100 µM)
9 |  |  |  |  | CCCCOc1ccc(-c2ccc(C(=O)O)cc2C)cc1CNC(=O)c1ccc(C(F)(F)F)cc1F | Activity [6]: inactive
10 |  |  |  |  | O=C(O)c1cc(C2CC2)c2cc(N3CCNCC3)c(F)cn2c1=O | IC50 [9]: 0.15 µg/mL (≈ 0.453 µM)
11 | 390 | 0.3 | 510 | 0.94 | O=C(NC[C@H](NS(=O)(=O)c1ccc(O)cc1)C(=O)O)c1ccc(N2CCC(NC3=NCCCN3)CC2)c(O)c1 | 
12 |  |  |  |  | CCCCOc1ccc(-c2c(F)ccc(C(=O)O)c2F)cc1CNC(=O)c1ccc(C(F)(F)F)cc1F | Activity [6]: inactive
13 |  |  |  |  | Cc1c(N2CC[C@H](N)C2)c(F)cn2c(=O)c(C(=O)O)cc(C3CC3)c12 [ABT-719] | IC50 [9]: 0.03 µg/mL (≈ 0.0869 µM)
14 |  |  |  |  | Clc1ccc(-c2ccccc2Cl)cc1 | solubility ([5]; water): 637 µg/mL (≈ 2860 µM)
15 |  |  |  |  | CCCCOc1ccc(-c2ccc(C(=O)O)cc2F)cc1CNC(=O)c1ccc(C(F)(F)F)cc1F | Activity [6]: inactive
16 | 190 | 1.3 | 290 | 3 | O=C(NC[C@H](NS(=O)(=O)c1ccccc1)C(=O)O)c1ccc(N2CCC(NC3=NCCCN3)CC2)cc1 | solubility ([5]; water): < 100 µg/mL
17 | 72 | 0.17 | 90 | 0.023 | O=C(NC[C@H](NS(=O)(=O)c1ccccc1)C(=O)O)c1ccc(N2CCC(NC3=NCCCN3)CC2)c(Cl)c1 | 
18 |  |  |  |  | CC(c1ccncc1)n1[nH]c(=O)c2[nH]c3cc(Cl)ccc3c(=O)c2c1=O.CS(=O)(=O)O (stereo not drawn) | solubility [10]: > 290 µg/mL
19 | 110 |  | 130 | 0.44 | COc1cc(C(=O)NC[C@H](NS(=O)(=O)c2ccccc2)C(=O)O)ccc1N1CCC(NC2=NCCCN2)CC1 | 
20 |  |  |  |  | CS(=O)(=O)O.O=c1c2ccc(Cl)cc2[nH]c2c(O)nn(Cc3ccncc3)c(=O)c12 | bioavailability [11]: 5%
21 | 53 | 0.14 | 230 | 0.18 | O=C(NC[C@H](NS(=O)(=O)c1ccc(O)cc1)C(=O)O)c1ccc(N2CCC(NC3=NCCCN3)CC2)c(F)c1 | solubility ([5]; water): 100 µg/mL (≈ 178 µM)
22 | 660 | 0.77 | 930 | 1.2 | O=C(O)c1ccc(S(=O)(=O)N[C@@H](CNC(=O)c2ccc(N3CCC(NC4=NCCCN4)CC3)c(F)c2)C(=O)O)cc1 | 
23 | 16 | 0.23 | 290 | 0.78 | O=C(NC[C@H](NS(=O)(=O)c1ccccc1)C(=O)O)c1ccc(N2CCC[C@H](NC3=NCCCN3)C2)cc1F | solubility ([5]; water): 2800 µg/mL (≈ 5120 µM)
